{
  "source": "patent US20170105953A1",
  "about": "“METHOD FOR SUPPRESSING DIABETES AND/OR HEPATIC LIPIDS USING TORMENTIC ACID” (priority 2015, published 2017)",
  "assay_type_in_all_cases": "in vivo",
  "key": {"[1]": {"test": "blood parameters in high-fat diet-fed mice", "conditions": "HF diet-fed C57BL/6J mice, Rosi 0.01 g/kg/day oral gavage 4 weeks", "description": "For part 2, C57BL/6J mice (4 weeks old) were obtained from the National Laboratory Animal Breeding and Research Center. The mice were divided randomly into two groups after 7 days acclimation. […] The compositions of the experimental diets are given in previous studies. After 8 weeks, the high-fat treated mice were randomly subdivided into four groups (n=9) including PTA1 (0.06 g/kg/day), PTA2 (0.12 g/kg/day) or rosiglitazone (Rosi; 1% methylcellulose, 10 mg/kg body weight) (GlaxoSmithKline) or vehicle and treated by oral gavage one time per day from the 9th to 12th weeks, while the mice were still on the high-fat diet, whereas the CON and high-fat control (HF) mice were treated with vehicle only. At the end, food was withheld from the animals (from 10 p.m. to 10 a.m.). The next day, the mice were sacrificed for blood and tissue collection and analysis. Livers, skeletal muscles, and white adipose tissues (WATs) (including epididymal, mesenteric, and retroperitoneal WAT) were weighed and excised, followed by immediate freezing, and kept at −80° C. for target gene analysis. Heparin (30 units/mL) (Sigma) was added to blood samples. Plasma samples were collected within 30 min by centrifugation at 1600 g for 15 min at 4° C. Plasma was obtained for insulin and leptin assay.\nBlood samples (0.8 mL) were collected from the retro-orbital sinus of fasted mice, and the glucose level was analyzed by the glucose oxidase method (model 1500; Sidekick Glucose Analyzer; YSI Inc., Yellow Springs, Ohio, USA). Plasma triglycerides (TG), total cholesterol (TC), and free fatty acids (FFA) were measured using commercial assay kits according to the manufacturer's directions (Triglycerides-E test, Cholesterol-E test, and FFA-C test, Wako Pure Chemical, Osaka, Japan). The levels of insulin and leptin in blood were analyzed by ELISA using a commercial assay kit according to the manufacturer's directions (mouse insulin ELISA kit, Sibayagi, Gunma, Japan; and mouse leptin ELISA kit, Morinaga, Yokohama, Japan)."}, "[2]": {"test": "hepatic lipids in high-fat diet-fed mice", "conditions": "HF diet-fed C57BL/6J mice, Rosi 0.01 g/kg/day oral gavage 4 weeks; mean ± SE, n=9", "description": "(§1) For part 2, C57BL/6J mice (4 weeks old) were obtained from the National Laboratory Animal Breeding and Research Center. The mice were divided randomly into two groups after 7 days acclimation. The control (CON) group (n=9) was fed a low-fat diet (diet 12450B, Research Diets, Inc., New Brunswick, N.J., USA), whereas the experimental group was fed a 45% high-fat diet (diet 12451, Research Diets, Inc.) for 12 weeks. The compositions of the experimental diets are given in previous studies. After 8 weeks, the high-fat treated mice were randomly subdivided into four groups (n=9) including PTA1 (0.06 g/kg/day), PTA2 (0.12 g/kg/day) or rosiglitazone (Rosi; 1% methylcellulose, 10 mg/kg body weight) (GlaxoSmithKline) or vehicle and treated by oral gavage one time per day from the 9th to 12th weeks, while the mice were still on the high-fat diet, whereas the CON and high-fat control (HF) mice were treated with vehicle only. At the end, food was withheld from the animals (from 10 p.m. to 10 a.m.). The next day, the mice were sacrificed for blood and tissue collection and analysis. Livers, skeletal muscles, and white adipose tissues (WATs) (including epididymal, mesenteric, and retroperitoneal WAT) were weighed and excised, followed by immediate freezing, and kept at −80° C. for target gene analysis. Heparin (30 units/mL) (Sigma) was added to blood samples. Plasma samples were collected within 30 min by centrifugation at 1600 g for 15 min at 4° C. Plasma was obtained for insulin and leptin assay.\nHepatic lipids were extracted using a previously described protocol. For the hepatic lipid extraction, 0.375 g liver samples were homogenized with 1 mL of distilled water for 5 min. Finally, the dried pellet was resuspended in 0.5 mL of ethanol and analyzed using a triglycerides kit as used for serum lipids."}, "[3]": {"tested_on": "epididymal WAT and liver tissue", "test": "histopathology of epididymal WAT and liver tissue", "conditions": "HF diet-fed C57BL/6J mice, Rosi 0.01 g/kg/day oral gavage 4 weeks", "description": "as §1\nSmall pieces of epididymal WAT and liver tissue were fixed with formalin (200 g/kg) neutral buffered solution and embedded in paraffin. Sections (8 μm) were cut and stained with hematoxylin and eosin. For microscopic examination, a microscope (Leica, DM2500) was used, and the images were taken using a Leica Digital camera (DFC-425-C)."}},
  "data": [
    {"smiles": "CN(CCOc1ccc(CC2SC(=O)NC2=O)cc1)c1ccccn1", "note": "(stereo not drawn) [Rosi, rosiglitazone, reference compound]", "values": [
      {"measurement": "blood glucose", "setting": "[1]; week 12", "result": 89.7, "unit": "mg/dL"},
      {"measurement": "Blood profiles: FFA (plasma free fatty acid)", "setting": "[1]; mean ± SE, n=9", "result": "1.85 ± 0.28", "unit": "mequiv/L"},
      {"measurement": "Blood profiles: Insulin", "setting": "[1]; mean ± SE, n=9", "result": "56.4 ± 13.8", "unit": "μU/mL"},
      {"measurement": "Blood profiles: Leptin", "setting": "[1]; mean ± SE, n=9", "result": "2.15 ± 0.099", "unit": "ng/mL"},
      {"measurement": "Blood profiles: TC (total cholesterol)", "setting": "[1]; mean ± SE, n=9", "result": "140.7 ± 14.1", "unit": "mg/dL"},
      {"measurement": "Liver lipids: Total lipid", "setting": "[2]", "result": "74.7 ± 5.7", "unit": "mg/g"},
      {"measurement": "Liver lipids: Triacylglycerol", "setting": "[2]", "result": "43.8 ± 4.7", "unit": "µmol/g"},
      {"measurement": "average area of adipocytes (epididymal WAT)", "setting": "[3]", "result": "4574.4±162.7", "unit": "μm^2"},
      {"measurement": "hepatocellular ballooning mean score", "setting": "[3]; grade 0 none, 1 a few cells, 2 many cells", "result": "0.9±0.2"}
    ]}
  ]
}
